Measured values reported in US20040102622A1, “Modulation of hepatocyte growth factor receptor expression” (Isis Pharmaceuticals Inc., priority 2002, published 2004).

tested on: human hepatocyte growth factor receptor mRNA

Row | Substance | inhibition of human hepatocyte growth factor receptor expression
1 | ISIS 209534: 2′-MOE gapmer, phosphorothioate backbone, sequence agcattacttcatataaggg (antisense AGCATTACTTCATATAAGGG; all phosphorothioate, sugars by position and methylation of C not given here; 2'-MOE gapmer) | at least 35%
2 | ISIS 209535: 2′-MOE gapmer, phosphorothioate backbone, sequence ataacaatacaagtcctatg (antisense ATAACAATACAAGTCCTATG; all phosphorothioate, sugars by position and methylation of C not given here; 2'-MOE gapmer) | at least 35%
3 | ISIS 209536: 2′-MOE gapmer, phosphorothioate backbone, sequence cctcccatactagagaagta (antisense CCTCCCATACTAGAGAAGTA; all phosphorothioate, sugars by position and methylation of C not given here; 2'-MOE gapmer) | at least 35%
4 | ISIS 209537: 2′-MOE gapmer, phosphorothioate backbone, sequence agaggtttatctgccaaaac (antisense AGAGGTTTATCTGCCAAAAC; all phosphorothioate, sugars by position and methylation of C not given here; 2'-MOE gapmer) | at least 35%
5 | ISIS 209539: 2′-MOE gapmer, phosphorothioate backbone, sequence gcttccccattgctgttagg (antisense GCTTCCCCATTGCTGTTAGG; all phosphorothioate, sugars by position and methylation of C not given here; 2'-MOE gapmer) | at least 35%
6 | ISIS 209540: 2′-MOE gapmer, phosphorothioate backbone, sequence cacatcccttgtaagttgga (antisense CACATCCCTTGTAAGTTGGA; all phosphorothioate, sugars by position and methylation of C not given here; 2'-MOE gapmer) | at least 35%
7 | ISIS 209541: 2′-MOE gapmer, phosphorothioate backbone, sequence accaagtactgtaagagagg (antisense ACCAAGTACTGTAAGAGAGG; all phosphorothioate, sugars by position and methylation of C not given here; 2'-MOE gapmer) | at least 35%
8 | ISIS 209542: 2′-MOE gapmer, phosphorothioate backbone, sequence cttgcttccactaaaaatga (antisense CTTGCTTCCACTAAAAATGA; all phosphorothioate, sugars by position and methylation of C not given here; 2'-MOE gapmer) | at least 35%
9 | ISIS 209543: 2′-MOE gapmer, phosphorothioate backbone, sequence gatgccaccgtgcactgtgc (antisense GATGCCACCGTGCACTGTGC; all phosphorothioate, sugars by position and methylation of C not given here; 2'-MOE gapmer) | at least 35%
10 | ISIS 209544: 2′-MOE gapmer, phosphorothioate backbone, sequence taatagtgcaattttggcaa (antisense TAATAGTGCAATTTTGGCAA; all phosphorothioate, sugars by position and methylation of C not given here; 2'-MOE gapmer) | at least 35%
11 | ISIS 209546: 2′-MOE gapmer, phosphorothioate backbone, sequence aattcaagttttggactcca (antisense AATTCAAGTTTTGGACTCCA; all phosphorothioate, sugars by position and methylation of C not given here; 2'-MOE gapmer) | at least 35%
12 | ISIS 209547: 2′-MOE gapmer, phosphorothioate backbone, sequence tcctgcttcaatttcccata (antisense TCCTGCTTCAATTTCCCATA; all phosphorothioate, sugars by position and methylation of C not given here; 2'-MOE gapmer) | at least 35%
13 | ISIS 209548: 2′-MOE gapmer, phosphorothioate backbone, sequence tcaagaagccctcaatattt (antisense TCAAGAAGCCCTCAATATTT; all phosphorothioate, sugars by position and methylation of C not given here; 2'-MOE gapmer) | at least 35%
14 | ISIS 209549: 2′-MOE gapmer, phosphorothioate backbone, sequence cctgagcattactatctctt (antisense CCTGAGCATTACTATCTCTT; all phosphorothioate, sugars by position and methylation of C not given here; 2'-MOE gapmer) | at least 35%
15 | ISIS 209550: 2′-MOE gapmer, phosphorothioate backbone, sequence tgcgcgctgtagtcccagct (antisense TGCGCGCTGTAGTCCCAGCT; all phosphorothioate, sugars by position and methylation of C not given here; 2'-MOE gapmer) | at least 35%
